Assay results reported in patent US20060039986A1, “Functional material, process for producing functional material and functional member and environment modifying apparatus using the functional material” (Kabushiki Kaisha Erubu, priority 2004, published 2006).

Assay: Stability of ascorbic acid in water of adjusted pH (DPPH and HPLC)
Format: physicochemical
Conditions: 5 ppm in 25° C. water
Experimental: The free ascorbic-acid concentrations were measured immediately after they were prepared so that ascorbic acid was contained in an amount of 5 ppm in 25° C. water whose pH was adjusted to 1, 3, 4, 5, 7, 9 and 11, respectively, and after 24 hours. The free ascorbic acid concentrations were measured by the above-described DPPH radical elimination method and an HPLC method. The HPLC method uses an ODS as the column, and uses an ultraviolet spectrophotometer (wavelength 254 nm) as the detecting device to carry out the measurement. The results are illustrated in FIG. 12.

O=C1O[C@H]([C@@H](O)CO)C(O)=C1O [ascorbic acid]
pH at which ascorbic acid could be stabilized more (24 hours): ≤ 3
pH boundary at or below which the stability of ascorbic acid improved (24 hours): ~5
stability of ascorbic acid versus pH (in words) (pH 1, 3, 4, 5, 7, 9, 11, immediately and after 24 hours (FIG. 12)): the lower the pH was the more the stability of ascorbic acid improved
